{
  "source": "patent US11504075B2",
  "about": "“System, methods, and devices for calculating hypoxic fraction and equilibration rate of small molecular weight tracers using dynamic imaging” (UNIVERSITY HEALTH NETWORK, priority 2017, dated 2022)",
  "key": {"[1]": {"conditions": "in most tissue; FAZA and similarly sized molecules; cited from earlier work"}, "[2]": {"test_system": "pancreatic ductal adenocarcinoma tumours", "assay": "Dynamic FAZA-PET imaging with two-tissue compartment model analysis in patients with pancreatic ductal adenocarcinoma", "format": "in vivo, human (patients)", "description": "In an example experiment, the pharmacokinetics of FAZA in twenty patients with pancreatic ductal adenocarcinoma (PDAC) were modeled, applying principles of diffusive equilibration to interpret transport data calculated from a standard two-tissue compartment model.\nData was taken from twenty patients with biopsy-confirmed pancreatic ductal adenocarcinoma and FAZA-PET scans. Dynamic PET imaging scans were acquired over one hour following injection of FAZA. The one hour time-activity curves (TAC1) were each binned into thirty-four frames: twelve ten-second frames, followed by eight thirty-second frames, followed by seven two-minute frames, followed by seven five-minute frames. Patients returned for a static PET scan at two hours. CT scans used for co-registration were taken at the beginning of the dynamic and static PET scans.\nPET activity data was obtained for regions of interest (ROIs) contoured using co-registered CT images. Tumour ROIs were contoured by a radiologist using the CT scan at two hours. This was co-registered manually to the initial CT scan and the two CT ROI sets were co-registered to the dynamic and static PET scans. In order to minimize effects resulting from high liver uptake of FAZA, aorta ROIs were contoured from the same range of PET/CT slices (along the cranial-caudal axis) as the tumour ROIs. At the level of the pancreas, the aorta is between 1.5 and 2 cm in diameter; to minimize partial volume effects, ROIs in the aorta were restricted to 0.75 cm in diameter and combined so that at least twenty-five PET voxels (3.9×3.9×3.3 mm^3 each) were imaged.\nDynamic PET TACs of FAZA were analyzed using the two-tissue compartment model:\nHere, the concentration of tracer in the extravascular space of an imaged region has been partitioned into an unbound, diffusing component Cd as well as a component Cb that is bound by hypoxia. CIn is the “input” function, which was taken to be the imaged tracer concentration in the aorta, as described above. As noted earlier, k1 and k2 are the vascular influx and efflux coefficients and k3 is the tracer trapping rate. The total tracer concentration in an imaged region is C(t)=vbCIn(t)+(1−vb)[Cd(t)+Cb(t)], (5) where vb is the volume fraction occupied by blood in the region of interest. The above model was fitted to both the one-hour TACs (TAC1) as well as the combined two-hour TAC (TAC2) comprising the one-hour TACs plus static scans at two hours (in part to assess co-registration errors, which should be greater for TAC2). Coefficients (vb, k1, k2, and k3) were determined by minimizing\n[formula] where Cmodel(ti) are the model activity values [Eqs. (3)-(5)] and Cdata(ti) are the measured values acquired during the N discrete time frames; N=34 for TAC1 and N=35 for TAC2. […] Equation 6 can be minimized with Cmodel(ti) calculated using trapezoidal integration.\nAn important tissue transport quantity is the distribution volume:\nIt represents the volume fraction of an imaged ROI in which tracer initially fills; i.e., rapidly equilibrates in. Patlak's formula,\nTo account for the unexpected correlations between k3 and vd, a model (shown schematically in FIG. 23) may be used in which an imaged voxel is comprised of two tissue types: one in which tracer reaches diffusive equilibration rapidly (with concentration C^(r)), and one in which it reaches equilibrium slowly (with concentration C^(s)): Cd(t)=vsCd^(s)+(1−vs)Cd^(r)(t). (11)\nThe factors of 1−vs and vs here ensure detailed balance amongst the compartments. kb is the binding rate due to hypoxia and keq represents the equilibration rate in the regions of slow-equilibration. This may be on the order of (0.1→1) hr-^1 when equilibration is driven by diffusion; see Eq. (2).\nTo distinguish kb and Keq in k3, voxel-scale k3 values were arranged into bins based on distribution volume values. […]"}},
  "note": "Where “and” joins values, the source holds several entries; their conditions need not be identical. Identical values can stand only once.",
  "data": [
    {"smiles": "O=[N+]([O-])c1nccn1[C@H]1O[C@H](CF)[C@@H](O)[C@@H]1O", "note": "[FAZA, fluoroazomycinarabinoside]", "values": [
      {"measurement": "diffusivity D", "setting": "[1]", "value": "~10", "unit": "μm^2/s"},
      {"measurement": "mean (population-averaged) equilibration rate keq in slow-equilibrating regions", "setting": "[2]; all twenty patients, standard deviation 0.29 hrs^−1 across patients", "value": "0.44 h⁻¹ and ~0.44 ± 0.29 h⁻¹"},
      {"measurement": "equilibration rate keq", "setting": "[2]; patient 1, fit of voxel-scale Keq to Eq. (18)", "value": 0.45, "unit": "h⁻¹"},
      {"measurement": "equilibration rate keq", "setting": "[2]; patient 2, fit of voxel-scale Keq to Eq. (18)", "value": 0.52, "unit": "h⁻¹"},
      {"measurement": "average distribution volume of tumour", "setting": "[2]; resected tumour exhibiting abundant apical mucin (FIG. 12 right)", "value": 0.76},
      {"measurement": "average distribution volume of tumour", "setting": "[2]; resected tumour exhibiting little mucin (FIG. 12 left)", "value": 0.92},
      {"measurement": "vascular influx rate k1, population average of tumour-scale values", "setting": "[2]; twenty PDAC patients", "value": "~0.3", "unit": "min⁻¹"}
    ]}
  ]
}
